Test results published in ChEMBL document CHEMBL2311512, “Addition of thiols to o-quinone methide: new 2-hydroxy-3-phenylsulfanylmethyl[1,4]naphthoquinones and their activity against the human malaria parasite Plasmodium falciparum (3D7)” (Eur J Med Chem, 2013).

Test system: Plasmodium falciparum
Assay: Antiplasmodial activity against Plasmodium falciparum 3D7 infected in RBC by flow cytometry analysis
Format: functional, organism-based

Compound	IC50 [µM]
CCCSCC1=C(O)C(=O)c2ccccc2C1=O	31.8
O=C1C(O)=C(C(Sc2ccc(Cl)cc2)c2ccc([N+](=O)[O-])cc2)C(=O)c2ccccc21 (racemic)	7.5
Cc1cccc(SC(C2=C(O)C(=O)c3ccccc3C2=O)c2ccccc2)c1 (racemic)	34.2
CCCSC(C1=C(O)C(=O)c2ccccc2C1=O)c1ccccc1 (racemic)	13.8
Cc1ccccc1SC(C1=C(O)C(=O)c2ccccc2C1=O)c1ccccc1 (racemic)	17.6
O=C1C(O)=C([C@H]2CC[C@H](c3ccc(Cl)cc3)CC2)C(=O)c2ccccc21 [ATOVAQUONE]	0.003
O=C1C(O)=C(C(Sc2ccc([N+](=O)[O-])cc2)c2ccccc2)C(=O)c2ccccc21 (racemic)	13.9
Cc1cccc(SC(C2=C(O)C(=O)c3ccccc3C2=O)c2ccc([N+](=O)[O-])cc2)c1 (racemic)	10.7
CSc1ccc(SC(C2=C(O)C(=O)c3ccccc3C2=O)c2ccccc2)cc1 (racemic)	18.2
O=C1C(O)=C(C(Sc2ccc3ccccc3c2)c2ccc([N+](=O)[O-])cc2)C(=O)c2ccccc21 (racemic)	19.9
O=C1C(O)=C(C(Sc2ccccc2)c2ccc([N+](=O)[O-])cc2)C(=O)c2ccccc21 (racemic)	16.8
Cc1ccc(SC(C2=C(O)C(=O)c3ccccc3C2=O)c2ccc([N+](=O)[O-])cc2)cc1 (racemic)	27
Cc1ccccc1SC(C1=C(O)C(=O)c2ccccc2C1=O)c1ccc([N+](=O)[O-])cc1 (racemic)	6.6
O=C1C(O)=C(C(Sc2ccc(O)cc2)c2ccc([N+](=O)[O-])cc2)C(=O)c2ccccc21 (racemic)	7.5
O=C1C(O)=C(C(Sc2ccc(F)cc2)c2ccc([N+](=O)[O-])cc2)C(=O)c2ccccc21 (racemic)	14.3
CCCSC(C1=C(O)C(=O)c2ccccc2C1=O)c1ccc([N+](=O)[O-])cc1 (racemic)	27.8

Results, then the molecule that gave them:

IC50 [µM]	Compound
20	O=C1C(=O)c2ccccc2C(O)=C1CSc1ccc(Cl)cc1
9.7	Cc1ccccc1SCC1=C(O)C(=O)c2ccccc2C1=O
14.5	O=C1C(O)=C(CSc2ccc3ccccc3c2)C(=O)c2ccccc21
9.3	COc1ccc(SCC2=C(O)C(=O)c3ccccc3C2=O)cc1
5.4	Cc1cccc(SCC2=C(O)C(=O)c3ccccc3C2=O)c1
22.3	CSc1ccc(SCC2=C(O)C(=O)c3ccccc3C2=O)cc1
7	O=C1C(O)=C(CSc2ccc(F)cc2)C(=O)c2ccccc21
6.8	Cc1ccc(SCC2=C(O)C(=O)c3ccccc3C2=O)cc1
27.1	O=C1C(O)=C(CSc2ccccc2)C(=O)c2ccccc21
14.4	O=C1C(O)=C(CSc2ccc([N+](=O)[O-])cc2)C(=O)c2ccccc21
